# Patent US12492184B2, “Heteroaryl compounds, preparation methods and uses thereof” (InventisBio Co., Ltd., priority 2020, dated 2025)
# Tested on: HEK-Blue IL23 Reporter
# Assay: HEK-Blue IL-23 STAT3 Reporter Assay
# Type: cell-based, human
# Settings: HEK-Blue IL23 cells stimulated with IL-23 overnight; SEAP read with QUANTI-Blue at OD655
# Experimental: HEK-Blue IL23 cells (InvivoGen catalog #HKB-IL23) are designed for the detection of bioactive IL-23 by monitoring the activation of the STAT3 pathway. They were generated by stably introducing the genes for the human IL-23 receptor, STAT3, and the SEAP (secreted embryonic alkaline phosphatase) reporter gene into human HEK293 cell line.
# Briefly, around 50,000 cells in DMEM medium supplemented with 10% heat inactivated FBS (˜180 ul) were seeded into each well and incubate for 48 hours at 37° C. with 5% CO2 in air. On day 3, one microliter of compound and 20 ul IL-23 were transferred to the assay plate respectively. The plate was left in the 37° C. incubator overnight. Two microliter of cell supernatant was transferred to a 384-well plate, and 18 ul of resuspended QUANTI-Blue solution was added to each well. SLAP levels were determined using Tecan Spark at OD655.
# Cells with no IL23 added were used as Low control. Cells stimulated with IL23 were used as High control. Inhibition rate was calculated with the formula of % inhibition=100*(High control−Treated Well)/(High Control−Low control). IL-23 reporter assay inhibition IC50 was calculated with the equation of Y=Bottom+(Top-Bottom)/(1+10^((Log IC50−X)*HillSlope)).
row,SMILES,IC50 [nM]
1,"[2H]C([2H])([2H])NC(=O)c1nnc(NC(=O)[C@H]2CC23CC3)cc1Nc1ncccc1S1(=O)=NCCC1 (single isomer, unassigned) [Compound 94]",137
2,"[2H]C([2H])([2H])NC(=O)c1nnc(NC(=O)[C@H]2CC23CC3)cc1Nc1ncccc1S(C)(=O)=NC (single isomer, unassigned) [Compound 97]",1.4

# Same assay, conditions: Homo sapiens, HEK-Blue IL-23, HEK-Blue IL23 cells stimulated with IL-23 overnight; SEAP read with QUANTI-Blue at OD655
row,SMILES,IC50 [nM]
1,"[2H]C([2H])([2H])NC(=O)c1nnc(NC(=O)C2CC2)cc1Nc1ncc(OC(F)(F)F)cc1S(C)(=O)=O (single isomer, unassigned) [Compound 53]",1.9
2,"[2H]C([2H])([2H])NC(=O)c1nnc(NC(=O)C2CC2)cc1Nc1ncc(SC(F)(F)F)cc1S(C)(=O)=O (single isomer, unassigned) [Compound 54]",1.5
3,"[2H]C([2H])([2H])NC(=O)c1cnc(NC(=O)C2CC2)cc1Nc1ncc(F)cc1S(C)(=O)=O (single isomer, unassigned) [Compound 55]",1.5
4,"[2H]C([2H])([2H])NC(=O)c1nnc(NC(=O)C2CC2)cc1Nc1ncc(C(F)F)cc1S(C)(=O)=O (single isomer, unassigned) [Compound 58]",2.7
5,"[2H]C([2H])([2H])NC(=O)c1nnc(NC(=O)C2CC2)cc1Nc1ncc(OCCOC)cc1S(C)(=O)=O (single isomer, unassigned) [Compound 59]",0.4
6,"[2H]C([2H])([2H])NC(=O)c1nnc(NC(=O)C2CC2)cc1Nc1ncc(OC(F)F)cc1S(C)(=O)=O (single isomer, unassigned) [Compound 60]",1.7
7,[2H]C([2H])([2H])NC(=O)c1nnc(NC(=O)C2CC23CC3)cc1Nc1ncc(OC)cc1S(C)(=O)=O (stereo not shown) [Compound 1],3.5
8,[2H]C([2H])([2H])NC(=O)c1nnc(NC(=O)[C@@H]2CC23CC3)cc1Nc1ncc(OC)cc1S(C)(=O)=O [Compound 2],4.3
9,[2H]C([2H])([2H])NC(=O)c1nnc(NC(=O)C2CC23CC3)cc1Nc1ncc(F)cc1S(C)(=O)=O (stereo not shown) [Compound 3],7.1
10,[2H]C([2H])([2H])NC(=O)c1nnc(NC(=O)C2CC23CC3)cc1Nc1nccc(C)c1S(C)(=O)=O (stereo not shown) [Compound 4],39.3
11,[2H]C([2H])([2H])NC(=O)c1nnc(NC(=O)[C@H]2CC23CC3)cc1Nc1ncc(C2CC2)cc1S(C)(=O)=O [Compound 5],1.7
12,[2H]C([2H])([2H])NC(=O)c1nnc(NC(=O)C2CC23CC3)cc1Nc1nccc(CO)c1S(C)(=O)=O (stereo not shown) [Compound 6],18.8
13,[2H]C([2H])([2H])NC(=O)c1nnc(NC(=O)C2CC23CC3)cc1Nc1ncccc1S(C)(=N)=O (stereo not shown) [Compound 7],14.4
14,[2H]C([2H])([2H])NC(=O)c1nnc(NC(=O)C2CC23CC3)cc1Nc1nccc2c1S(C)(=O)=NC2 (stereo not shown) [Compound 8],2.6
15,[2H]C([2H])([2H])NC(=O)c1nnc(NC(=O)[C@H]2CC23CC3)cc1Nc1ccc(Cl)cc1S(C)(=O)=O [Compound 9],51
16,[2H]C([2H])([2H])NC(=O)c1nnc(NC(=O)[C@H]2CC23CC3)cc1Nc1cc(Cl)ccc1S(C)(=O)=O [Compound 10],1820
17,[2H]C([2H])([2H])NC(=O)c1nnc(NC(=O)C2CC23CC3)nc1Nc1ccccc1S(C)(=O)=O (stereo not shown) [Compound 11],121
18,CS(=O)(=O)c1cccnc1Nc1cc(NC(=O)C2CC23CC3)ncc1C(=O)C1CC1 (stereo not shown) [Compound 12],140
19,[2H]C([2H])([2H])NC(=O)c1nnc(NC(=O)[C@H]2CC23CC3)cc1Nc1ccncc1S(C)(=O)=O [Compound 13],346
20,[2H]C([2H])([2H])NC(=O)c1nnc(NC(=O)C2CC2)cc1Nc1ncc(OC)cc1S(C)(=O)=O [Compound 14],1.3
21,[2H]C([2H])([2H])NC(=O)c1nnc(NC(=O)C2CCC2)cc1Nc1ncc(OC)cc1S(C)(=O)=O [Compound 15],9.1
22,[2H]C([2H])([2H])NC(=O)c1nnc(NC(=O)C23CC(C2)C3)cc1Nc1ncc(OC)cc1S(C)(=O)=O [Compound 16],182

row,SMILES,IC50 [nM]
1,[2H]C([2H])([2H])NC(=O)c1nnc(NC(=O)C2CCCC2)cc1Nc1ncc(OC)cc1S(C)(=O)=O [Compound 17],13.8
2,[2H]C([2H])([2H])NC(=O)c1nnc(NC(=O)C(C)C)cc1Nc1ncc(OC)cc1S(C)(=O)=O [Compound 18],38.9
3,[2H]C([2H])([2H])NC(=O)c1nnc(NC(=O)OC)cc1Nc1ncc(OC)cc1S(C)(=O)=O [Compound 19],20.9
4,[2H]C([2H])([2H])NC(=O)c1nnc(NC23CC(C2)C3)cc1Nc1ncccc1S(C)(=O)=O [Compound 20],195
5,[2H]C([2H])([2H])NC(=O)c1nnc(NC(=O)NC2CC2)cc1Nc1ncccc1S(C)(=O)=O [Compound 21],8.9
6,[2H]C([2H])([2H])NC(=O)c1nnc(NC2CC2)cc1Nc1ncccc1S(C)(=O)=O [Compound 22],106
7,COC(=O)Nc1cc(Nc2ncccc2S(C)(=O)=O)c(C(N)=O)nn1 [Compound 23],58.5
8,[2H]C([2H])([2H])NC(=O)c1nnc(NC(=O)OC)cc1Nc1ncccc1S(C)(=O)=O [Compound 24],25.4
9,[2H]C([2H])([2H])NC(=O)c1nnc(-c2cc(C)n[nH]2)cc1Nc1ncccc1S(C)(=O)=O [Compound 25],≥ 1000
10,[2H]C([2H])([2H])NC(=O)c1nnc(NC(=O)[C@H]2CC23CC3)cc1Nc1ncc(OC)cc1S(C)(=O)=O [Compound 26],2.3
11,[2H]C([2H])([2H])NC(=O)c1nnc(NC(=O)C2CC2(C)C)cc1Nc1ncc(OC)cc1S(C)(=O)=O (stereo not shown) [Compound 27],24.2
12,[2H]C([2H])([2H])NC(=O)c1nnc(NC(=O)C2(C)CC2)cc1Nc1ncc(OC)cc1S(C)(=O)=O [Compound 28],35.1
13,[2H]C([2H])([2H])NC(=O)c1nnc(NC(=O)c2ccc(F)cc2)cc1Nc1ncc(OC)cc1S(C)(=O)=O [Compound 29],350
14,[2H]C([2H])([2H])NC(=O)c1nnc(NC(=O)c2ccn(C)n2)cc1Nc1ncc(OC)cc1S(C)(=O)=O [Compound 30],440
15,[2H]C([2H])([2H])NC(=O)c1nnc(NC(=O)[C@H]2CC23CC3)cc1Nc1ncc(C(F)(F)F)cc1S(C)(=O)=O [Compound 32],5.3
16,[2H]C([2H])([2H])NC(=O)c1nnc(NC(=O)[C@H]2CC23CC3)cc1Nc1ncc(C)cc1S(C)(=O)=O [Compound 33],0.9
17,[2H]C([2H])([2H])NC(=O)c1nnc(NC(=O)[C@H]2CC23CC3)cc1Nc1nccc(OC)c1S(C)(=O)=O [Compound 34],548
18,[2H]C([2H])([2H])NC(=O)c1nnc(NC(=O)C2(F)CC2)cc1Nc1ncc(OC)cc1S(C)(=O)=O [Compound 35],11
19,[2H]C([2H])([2H])NC(=O)c1nnc(NC(=O)C2CC(OC)C2)cc1Nc1ncc(OC)cc1S(C)(=O)=O (stereo not shown) [Compound 36],5.6
20,[2H]C([2H])([2H])NC(=O)c1nnc(NC(=O)[C@H]2[C@@H]3COC[C@@H]32)cc1Nc1ncc(OC)cc1S(C)(=O)=O [Compound 37],10.2
21,[2H]C([2H])([2H])NC(=O)c1nnc(NC(=O)[C@H]2[C@@H]3COC[C@@H]32)cc1Nc1ncccc1S(C)(=O)=O [Compound 38],15.3
22,[2H]C([2H])([2H])NC(=O)c1nnc(NC(=O)[C@H]2CC23CC3)cc1Nc1nc2c(cc1S(C)(=O)=O)CN(C(=O)OCc1ccccc1)CC2 [Compound 39],3.2
